We go through one substance from patent US20060188913A1, “Methods and products for enhancing immune responses using imidazoquinoline compounds” (University of Iowa Research Foundation, priority 2001, published 2006).

Common to all, as to format: cell-based
Test [1] has as its system human PBMC. Put plainly: IFN-gamma secretion by human PBMC (ELISA). The following applies: 48 hours, compared to R-848, not shown. How it is done: (§1) This experiment investigated the induction of the Th1 cytokine IFN-gamma as well as the Th1-related chemokine IP-10 (IFN-gamma inducible protein). Unfractionated human PBMC from three donors were incubated for 48 hours in the presence of varying concentrations of R-848 (0.01-1.0 μg/ml), varying concentrations of CpG ODN 2006 (0.2-3.0 μg/ml), varying concentrations of negative control ODN 5177 (0.2-3.0 μg/ml), SEB (50 ng/ml), or media alone, and then the concentrations of IP-10 and IFN-gamma in the supernatant were measured by ELISA.

Test [2] relates to human PBMC. Put plainly: IL-6 secretion by human PBMC (ELISA), with or without chloroquine. Particulars: 10 μg/ml chloroquine, 24 h, IL-6, FIG. 9. On the procedure:
Vasilakos J P et al. (2000) Cell Immunol 204:64-74. Human PBMC (n=3) were cultured for 24 h with varying concentrations of R-848 ([…]), varying concentrations of CpG ODN 2006 (0.8-6.0 μg/ml), SEB (50 ng/ml), or media alone. […] IL-6 in the supernatants was measured by ELISA. […] TLR9 is believed to have intracellular expression only.

The next test addresses T1, hTLR7 (Homo sapiens, UniProt Q9NYK1).
T1 construct: plasmids (pcDNA3.1 constructs) coding for full length hTLR2, hTLR7, hTLR8 and hTLR9; expressed in transfected cells; host or cells: 293T cells
T1 sequence (Q9NYK1 27-1049): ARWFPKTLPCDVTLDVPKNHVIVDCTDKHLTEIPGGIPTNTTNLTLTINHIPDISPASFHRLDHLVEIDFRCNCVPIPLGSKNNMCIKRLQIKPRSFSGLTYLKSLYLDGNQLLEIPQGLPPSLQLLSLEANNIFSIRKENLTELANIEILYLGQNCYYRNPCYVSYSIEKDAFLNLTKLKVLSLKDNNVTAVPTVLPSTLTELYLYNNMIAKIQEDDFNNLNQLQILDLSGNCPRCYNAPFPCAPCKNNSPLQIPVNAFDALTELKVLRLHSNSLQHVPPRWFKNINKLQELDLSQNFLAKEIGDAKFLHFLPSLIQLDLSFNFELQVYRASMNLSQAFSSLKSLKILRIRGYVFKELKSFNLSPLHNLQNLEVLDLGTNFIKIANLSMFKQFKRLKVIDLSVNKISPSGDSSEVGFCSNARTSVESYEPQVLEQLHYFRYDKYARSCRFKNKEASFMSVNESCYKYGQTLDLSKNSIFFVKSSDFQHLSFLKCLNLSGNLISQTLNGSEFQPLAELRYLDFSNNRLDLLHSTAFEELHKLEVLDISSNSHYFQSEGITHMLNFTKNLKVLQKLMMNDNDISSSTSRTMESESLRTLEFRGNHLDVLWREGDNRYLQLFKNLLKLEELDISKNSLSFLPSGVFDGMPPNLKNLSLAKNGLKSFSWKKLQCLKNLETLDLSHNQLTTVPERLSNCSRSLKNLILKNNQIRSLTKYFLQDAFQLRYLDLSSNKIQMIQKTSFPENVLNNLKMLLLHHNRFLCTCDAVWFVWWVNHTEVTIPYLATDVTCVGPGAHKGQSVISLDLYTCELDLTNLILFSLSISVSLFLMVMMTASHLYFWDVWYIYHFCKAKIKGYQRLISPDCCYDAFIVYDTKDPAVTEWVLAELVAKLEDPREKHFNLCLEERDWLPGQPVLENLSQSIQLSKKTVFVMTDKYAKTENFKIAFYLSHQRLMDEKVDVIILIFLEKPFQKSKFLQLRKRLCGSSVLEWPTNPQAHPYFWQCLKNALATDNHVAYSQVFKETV
The experiment in a line: IL-8 production in 293 fibroblasts transiently expressing hTLR7. The following applies: CpG-ODN 2 μM, LPS 100 ng/ml. How it is done:
The cloned human TLR7 and human TLR8 cDNA were cloned into the expression vector pCDNA3. 1 (−) from Invitrogen using the NotI site. Utilizing a “gain of function” assay, hTLR7 and hTLR8 expression vectors were transiently expressed in human 293 fibroblasts (ATCC, CRL-1573) using the calcium phosphate method. Activation was monitored by IL-8 production after stimulus with CpG-ODN (2006 or 1668, 2 μM) or LPS (100 ng/ml).

Test [3] relates to human PBMC. Put plainly: IP-10 secretion by human PBMC (ELISA). Particulars: 48 hours, ODN 0.2-3.0 μg/ml versus R-848 0.01-1.0 μg/ml, FIG. 6A. How it is done:
as §1
In FIG. 6B, the combined effects of R-848 and CpG ODN (e.g., #2006) on IP-10 secretion are shown. Human PBMCs from three different donors were incubated for 48 hours with the indicated concentrations of ODNs and R-848, either individually or together. Supernatants were harvested and IP-10 was measured by ELISA. The data represent mean cytokine amounts.

For the substance CpG ODN 2006, the IFN-gamma induction result in the test with human PBMC [1] is reported as “The same result was obtained”. Also, the “inhibition of the stimulant's activity by chloroquine (in words)” value in the test with human PBMC [2] is listed as “completely abolish”. The “activation monitored by IL-8 production” value at hTLR7 is “None of the stimuli used activated”. In addition, in the test on human PBMC [3], the IP-10 induction result was “induced similar amounts of IP-10 compared to R-848”.
